The source of these data is article PMC3595096 (Biochemistry, 2012).

Several values for one entry are separate records, joined by “and”; a condition that tells them apart may be missing. Equal entries are not always repeated. Structures can show the parent of a compound that is named as a salt.

As usually defined, the EC50 is the concentration at which the effect is half-maximal. Low values mean a more potent agent, high ones a less potent agent.

For assay [1], the system named is various subtypes of muscarinic receptor. As to conditions: cited from earlier work.
Assay [2] deals with M2 receptor extracted from porcine atria (Sus scrofa, UniProt P06199). Format: binding.
M2 receptor extracted from porcine atria, sequence (P06199 whole entry): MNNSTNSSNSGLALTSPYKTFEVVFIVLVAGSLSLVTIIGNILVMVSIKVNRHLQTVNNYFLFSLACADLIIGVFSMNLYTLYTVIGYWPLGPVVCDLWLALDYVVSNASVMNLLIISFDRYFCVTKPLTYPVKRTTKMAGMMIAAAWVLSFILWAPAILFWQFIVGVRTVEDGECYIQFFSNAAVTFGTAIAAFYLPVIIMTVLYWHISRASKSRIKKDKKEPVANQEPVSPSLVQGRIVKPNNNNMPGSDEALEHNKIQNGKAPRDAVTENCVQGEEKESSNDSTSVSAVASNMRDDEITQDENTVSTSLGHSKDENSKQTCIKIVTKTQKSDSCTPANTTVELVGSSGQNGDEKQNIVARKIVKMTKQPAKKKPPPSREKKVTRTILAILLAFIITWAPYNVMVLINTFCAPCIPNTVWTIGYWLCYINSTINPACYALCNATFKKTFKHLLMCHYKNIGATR
For assay [3], the target named is T1, human M2 receptor (Homo sapiens, UniProt P08172). Format: binding.
T1 sequence (P08172 whole entry): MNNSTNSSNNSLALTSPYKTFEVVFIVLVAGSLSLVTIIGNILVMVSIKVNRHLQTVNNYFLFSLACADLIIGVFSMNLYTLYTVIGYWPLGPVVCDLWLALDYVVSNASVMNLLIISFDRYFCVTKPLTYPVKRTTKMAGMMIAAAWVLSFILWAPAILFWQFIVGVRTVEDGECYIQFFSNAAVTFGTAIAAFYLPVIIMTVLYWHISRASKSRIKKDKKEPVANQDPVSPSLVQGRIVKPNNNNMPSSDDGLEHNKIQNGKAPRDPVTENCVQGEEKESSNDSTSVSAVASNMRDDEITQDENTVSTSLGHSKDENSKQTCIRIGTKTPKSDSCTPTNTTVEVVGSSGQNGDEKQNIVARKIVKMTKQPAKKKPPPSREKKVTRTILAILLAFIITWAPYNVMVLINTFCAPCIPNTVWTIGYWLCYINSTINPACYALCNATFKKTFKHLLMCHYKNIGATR
The test system of assay [4] is monomers of the M2 receptor. Particulars: cited from earlier work.
Assay [5] deals with M2 receptor in sarcolemmal membranes (Sus scrofa, UniProt P06199). Description: biochemical. Format: binding, porcine.
M2 receptor in sarcolemmal membranes, sequence (P06199 whole entry): as the sequence (P06199 whole entry) above
For assay [6], the system named is muscarinic acetylcholine M2 receptors. As to conditions: cited from earlier work.
In assay [7] the target is M2 receptor from porcine atria (Sus scrofa, UniProt P06199). Description: biochemical. The class given is binding.
M2 receptor from porcine atria, sequence (P06199 whole entry): as above
Assay [8] addresses T1, human M2 receptor. Format: binding. This is another data set of the same source.
For assay [9], the target named is T2, M2 receptor (Sus scrofa, UniProt P06199). As to conditions: cited from earlier work.
T2 sequence (P06199 whole entry): as above
The target in assay [10] is T2, M2 receptor. Format: binding.

Take `COC(=O)[C@@]1(OC)C[C@H]2O[C@]1(C)n1c3ccccc3c3c4c(c5c6ccccc6n2c5c31)C(=O)N(C)C4` [KT5823]: the Hill coefficient entry in assay [1] was “greater than 1”.
Take `C[N+]1(C)[C@@H]2C[C@@H](OC(=O)[C@H](CO)c3ccccc3)C[C@H]1[C@@H]1O[C@@H]12` [N-[^3H]methylscopolamine, N-[^3H]Methylscopolamine]: in [2], the “observed rate constant for dissociation kobsd, range of values” is 0.179 to 0.247 min⁻¹. In addition, at human M2 receptor [3], the “observed rate constant for dissociation kobsd, range of values” was 0.054 to 0.059 min⁻¹ and the “rate constant of net dissociation k (mean)” value is 0.053 ± 0.002. The “rate constant of dissociation” value in assay [4] is on record as 0.036 ± 0.001.
For the molecule `Clc1cccc(Cl)c1CO/N=C/c1cc[n+](CCC[n+]2ccc(/C=N/OCc3c(Cl)cccc3Cl)cc2)cc1` [Duo-3], in assay [1], the Hill coefficient result is “greater than 1”.
For the molecule `CC[N+](CC)(CC)CCOc1cccc(OCC[N+](CC)(CC)CC)c1OCC[N+](CC)(CC)CC` [gallamine, gallamine triethiodide], in assay [5], the “cooperativity factor (1/α), Scheme 2” value is “about 70”. Besides, the half-maximal effective concentration (EC50) is 53.7 nM and 282 nM in assay [5] (log K1); roughly 71000 nM in assay [7]. For the same molecule, the cooperativity factor in [6] is recorded as 46. For the same molecule, the “log K” value in [4] is −4.12. Besides, the “nH(1)” value on human M2 receptor [8] is listed as 2.41.
With `Nc1c2c(nc3ccccc13)CCCC2` [tacrine], the Hill coefficient entry is recorded as “exceed 1” at M2 receptor [9] and “greater than 1” in assay [1].
For `CN1[C@@H]2CC[C@H]1C[C@@H](OC(=O)C(CO)c1ccccc1)C2` (stereo partly shown) [atropine, Atropine sulfate], the “Hill coefficient for inhibition of N-[3H]methylscopolamine” value at M2 receptor [10] was “indistinguishable from 1”.
As for `COc1ccc2c(c1)c1c3c(c4c5ccccc5n(C)c4c1n2CC(O)CN(C)C)C(=O)NC3=O` (stereo not shown) [Go7874], in [1], the Hill coefficient result was “greater than 1”.
